The text below walks through data of patent US7846968B2, “Methods for QT interval control” (Janssen Pharmaceutica, N.V., priority 2005, dated 2010).

Series [1] can be described thus: Pharmacokinetics / drug level measurements in the crossover QT study. Format: in vivo, human. As to the method:
(§1) The study of the cardiovascular effects of a carbamate compound of the present invention, shown as Formula 7 above, and hereafter referred to as “the test compound” was a single-center, double-blind, randomized, 3-way crossover, placebo- and active-control study. The test compound was studied at a dose of 1,500 mg/day (750 mg twice daily) both after acute dosing ([…], Day 1) and at steady state (Day 7). The study also evaluated the delayed post-treatment effects on Days 8-10. Moxifloxacin (400 mg, single oral dose) was used as an active control for the evaluation of QT/QTc on both Days 1 and 7.
Of the 38 subjects enrolled, 35 completed all 3 treatment conditions (placebo, moxifloxacin, test compound). Two subjects withdrew electively after receiving the first 3 days of the last treatment period (1 in moxifloxacin and 1 in test compound), and the last one withdrew because of an adverse event (respiratory tract infection) after the first treatment period (placebo), and before receiving any other treatment. Thus, all 38 subjects completed placebo treatment, 36 subjects completed the test compound treatment (and an additional subject provided data for Days 0 and 1 on test compound), and 36 completed moxifloxacin treatment (and 1 provided data for Days 0 and 1 on moxifloxacin). […]

For the next series, the system named is healthy adults. As to the kind of experiment: Double-blind, randomized, 3-way crossover, placebo- and active-control study of cardiovascular (QT/QTc) effects. Type of series: in vivo, human. The following applies: for Mean change from pretreatment baseline in QTc interval (mean ΔQTc), Bazett correction / Mean change from pretreatment baseline in QTc interval (mean ΔQTc), Individual Correction Method / Mean change from pretreatment baseline in QTc interval (mean ΔQTc), Fridericia correction: moxifloxacin 400 mg single oral dose; for Mean change from pretreatment baseline in QTc interval (mean ΔQTc), Fridericia correction: time-matched baseline Day 0; for Maximum decrease in QTc-F compared to baseline: individual subjects; for Maximum decrease in QTc-F compared to baseline / Number of subjects with QTc shortening between 30 and 60 ms compared to baseline: QTc-F; for Reduction of the mean QTc-F interval compared to pretreatment baseline (Day 0): stated as reduction. As to the method: as §1
(§2) Of the 38 subjects enrolled, 35 completed all 3 treatment conditions (placebo, moxifloxacin, test compound). Two subjects withdrew electively after receiving the first 3 days of the last treatment period (1 in moxifloxacin and 1 in test compound), and the last one withdrew because of an adverse event (respiratory tract infection) after the first treatment period (placebo), and before receiving any other treatment. Thus, all 38 subjects completed placebo treatment, 36 subjects completed the test compound treatment (and an additional subject provided data for Days 0 and 1 on test compound), and 36 completed moxifloxacin treatment (and 1 provided data for Days 0 and 1 on moxifloxacin). All 38 subjects were included in the safety evaluation; all collected drug level measurements and all available ECG recordings were included in data analyses.
The study population consisted of 38 healthy adults (20 men and 18 women), age 18 to 50 years, with normal 12-lead ECG (normal sinus rhythm, QTc and QRS intervals) and no history of cardiovascular disease. Of the 38 subjects enrolled, 35 completed all 3 treatment conditions (placebo, moxifloxacin, test compound). Two subjects withdrew electively after receiving the first 3 days of the last treatment period (1 in moxifloxacin and 1 in test compound), and the last one withdrew because of an adverse event (respiratory tract infection) after the first treatment period (placebo), and before receiving any.
as §2, with “The study population consisted of 38 healthy adults (20 men and 18 women), age 18 to 50 years, with normal 12-lead ECG (normal sinus rhythm, QTc and QRS intervals) and no history of cardiovascular disease. Of” for “Of”, “completed” for “completed the”
During each treatment period, 11 12-lead ECGs were collected at the same time of the day on Day 0 (baseline), Day 1 (initial treatment), and Day 7 (steady-state treatment); 4 additional ECGs were collected at exactly 24, 36, 48, and 72 hours after the last dose of Day 7 (post-treatment).
All ECG recordings of the same subject were read by the same blinded cardiologist. The QT intervals, from the onset of the QRS complex to the end of the T wave, were determined by the method of overlapping medians. The key QTc variables used in the assessment are listed below. The change from baseline (ΔQTc) was calculated using time-matched values. The following parameters were calculated for each subject and treatment by averaging over all time points during the 12-hour dosing interval. […]

Where [2] appears, read: Day 1 (acute dosing), test compound 250 mg.
Where [3] appears, read: Day 1 (acute dosing), test compound 250 mg, averaged over 12-hour dosing interval.
Where [4] appears, read: Day 7 (steady state), test compound 1,500 mg/day (750 mg twice daily).

Where only a bound is given, the exact number is not on record here.

`COc1c(N2C[C@@H]3CCCN[C@@H]3C2)c(F)cc2c(=O)c(C(=O)O)cn(C3CC3)c12` [Moxifloxacin, reference compound]: the “Systemic exposure between the 2 single doses” value in series [1] (400 mg doses on Day 1 and Day 7) is “consistent”. Further, in the series on healthy adults (setting [2]), the “Mean change from pretreatment baseline in QTc interval (mean ΔQTc), Bazett correction” value is on record as “+6.5 ms” and the “Mean change from pretreatment baseline in QTc interval (mean ΔQTc), Individual Correction Method” value is given as “+6.6 ms”. In the series with healthy adults (setting [3]), the “Mean change from pretreatment baseline in QTc interval (mean ΔQTc), Fridericia correction” value is “+6.7 ms”. Also, in the series on healthy adults (setting [4]), the “Mean change from pretreatment baseline in QTc interval (mean ΔQTc), Bazett correction” value is “+3.2 ms”; the “Mean change from pretreatment baseline in QTc interval (mean ΔQTc), Individual Correction Method” value is “+0.8 ms”; the “Mean change from pretreatment baseline in QTc interval (mean ΔQTc), Fridericia correction” value is listed as “+1.6 ms”. Besides, in the series with healthy adults, the “Maximum decrease in QTc-F compared to baseline” value amounted to 45 ms. For the same compound, the “Number of subjects with QTc shortening between 30 and 60 ms compared to baseline” value in the series with healthy adults (steady state (Day 7)) came to 5 subjects.

In the case of `NC(=O)OC[C@@H](O)c1ccccc1Cl` [test compound], the “Pharmacokinetics (linearity / dose proportionality)” value in series [1] (after single- and multiple-dose administration) is “linear and proportional”. Besides, the “Gender effect with regard to QTc reduction” value in the series on healthy adults (20 men and 18 women) is listed as “no gender effect”. Besides, the figures for the “Mean change from pretreatment baseline in QTc interval (mean ΔQTc), Bazett correction” value with healthy adults (setting [2]) and in the series on healthy adults (setting [4]) were -3.2 ms and -7.4 ms, respectively. Besides, the “Mean change from pretreatment baseline in QTc interval (mean ΔQTc), Individual Correction Method” value in the series with healthy adults (setting [2]) was -3.7 ms; in the series on healthy adults (setting [4]), -12.1 ms. Further, the “Mean change from pretreatment baseline in QTc interval (mean ΔQTc), Fridericia correction” value in the series with healthy adults (setting [3]) is -3.1 ms; in the series on healthy adults (setting [4]), -11.2 ms. Besides, the “Delayed post-treatment effect on QT/QTc intervals” value in the series with healthy adults (Days 8-10) is “no apparent delayed post-treatment effect”. In the series with healthy adults, the “Maximum decrease in QTc-F compared to baseline” value came to 47 ms. In addition, the “Reduction of the mean QTc-F interval compared to pretreatment baseline (Day 0)” value in the series with healthy adults (after initial treatment (Day 1)) was 3.1 ms; in the series on healthy adults (at steady state (Day 7)), 11.2 ms. Besides, the “Lowest QTc-F value” in the series with healthy adults (observed in 3 subjects (2 test compound, 1 placebo)) is reported as 348 ms. Also, the “Time after the last dose of Day 7 by which the QTc shortening effect disappeared” value with healthy adults (post-treatment ECGs at 24, 36, 48, 72 hours) was at most 24 h. The “Number of subjects with QTc-F slightly below 350 ms” value with healthy adults (steady state (Day 7)) was 2 subjects. Besides, in the series on healthy adults (steady state (Day 7)), the “Number of subjects with QTc shortening between 30 and 60 ms compared to baseline” value came out at 14 subjects.
